Among the data in patent US5604253A, “N-benzylindol-3-yl propanoic acid derivatives as cyclooxygenase inhibitors” (priority 1995, dated 1997) are ED30 and IC50 values, retold here.

The subject of one assay is Rat Paw Edema. Briefly: Rat paw edema assay (carrageenan). It is filed as in vivo, Sprague-Dawley rat. The protocol:
Male Sprague-Dawley rats (150-200 g) are fasted overnight and are given po either vehicle (1% methocel or 5% Tween 80) or a test compound. One hr later, a line is drawn using a permanent marker at the level above the ankle in one hind paw to define the area of the paw to be monitored. The paw volume (V0) is measured using a plethysmometer (Ugo-Basile, Italy) based on the principle of water displacement. The animals are then injected subplantarly with 50 μl of 1% carrageenan solution in saline (FMC Corp, Maine) into the paw using an insulin syringe with a 25-gauge needle (i.e., 500 μg carrageenan per paw). Three hr later, the paw volume (V3) is measured and the increases in paw volume (V3 -V0) are calculated. The animals are sacrificed by CO2 asphyxiation and the absence or presence of stomach lesions scored. Data is compared with the vehicle-control values and percent inhibition calculated. All treatment groups are coded to eliminate observer bias.

The target in another assay is cyclooxygenase-1 (Homo sapiens, UniProt P23219). Nature of the assay: cell-based. To be noted: PGE2 production, human U-937 cells, 10 μM arachidonic acid; read-out: Cox-1 IC50. The protocol:
(§1) Compounds were tested as inhibitors of cyclooxygenase activity in whole cell cyclooxygenase assays. Both of these assays measured prostaglandin E2 synthesis in response to arachidonic acid, using a radioimmunoassay. Cells used for these assays were human osteosarcoma 143 cells (which specifically express cyclooxygenase-2) and human U-937 cells (which specifically express cyclooxygenase-1). In these assays, 100% activity is defined as the difference between prostaglandin E2 synthesis in the absence and presence of arachidonate addition.
(§2) For cyclooxygenase assays, osteosarcoma cells are cultured in 1 mL of media in 24-well multidishes (Nunclon) until confluent (1-2×10^5 cells/well). U-937 cells are grown in spinner flasks and resuspended to a final density of 1.5×10^6 cells/mL in 24-well multidishes (Nunclon). Following washing and resuspension of osteosarcoma and U-937 cells in 1 mL of Hanks balanced salts solution (HBSS), 2 μL of a DMSO solution of test compound or DMSO vehicle is added, and samples gently mixed. All assays are performed in triplicate. Samples are then incubated for 5 or 15 minutes at 37° C., prior to the addition of arachidonic acid. Arachidonic acid (peroxide-free, Cayman Chemical) is prepared as a 10 mM stock solution in ethanol and further diluted 10-fold in HBSS. An aliquot of 10 μL of this diluted solution is added to the cells to give a final arachidonic acid concentration of 10 μM. Control samples are incubated with ethanol vehicle instead of arachidonic acid. Samples are again gently mixed and incubated for a further 10 min at 37° C. For osteosarcoma cells, reactions are then stopped by the addition of 100 μL of 1N HCl, with mixing and by the rapid removal of the solution from cell monolayers. For U-937 cells, reactions are stopped by the addition of 100 μL of 1N HCl, with mixing. Samples are then neutralized by the addition of 100 μL of 1N NaOH and PGE2 levels measured by radioimmunoassay.
(§3) In the assay, inhibition is determined by measuring the amount of prostaglandin E2 (PGE2) synthesized in the presence of arachidonic acid, cyclooxygenase-1 or cyclooxygenase-2 and a putative inhibitor.

Another assay addresses T1, cyclooxygenase-2 (Homo sapiens, UniProt P35354).
T1 sequence (P35354 18-604): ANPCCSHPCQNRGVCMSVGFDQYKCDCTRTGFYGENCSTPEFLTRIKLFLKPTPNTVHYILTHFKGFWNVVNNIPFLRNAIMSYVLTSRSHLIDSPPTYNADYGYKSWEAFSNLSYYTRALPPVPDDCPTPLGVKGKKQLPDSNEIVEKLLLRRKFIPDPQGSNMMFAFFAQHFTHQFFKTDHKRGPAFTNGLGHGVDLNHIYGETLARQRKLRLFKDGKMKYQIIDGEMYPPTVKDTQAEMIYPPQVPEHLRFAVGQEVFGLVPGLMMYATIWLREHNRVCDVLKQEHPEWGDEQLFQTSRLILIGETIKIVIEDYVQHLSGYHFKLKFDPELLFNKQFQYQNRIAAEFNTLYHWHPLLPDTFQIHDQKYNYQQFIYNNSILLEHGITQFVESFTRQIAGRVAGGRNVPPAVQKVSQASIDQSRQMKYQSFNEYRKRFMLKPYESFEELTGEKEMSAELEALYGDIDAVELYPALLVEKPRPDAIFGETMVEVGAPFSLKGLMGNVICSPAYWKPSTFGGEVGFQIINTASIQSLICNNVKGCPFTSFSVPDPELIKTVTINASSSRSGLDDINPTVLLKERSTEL
Nature of the assay: cell-based. The settings on record: PGE2 production, human osteosarcoma 143 cells, 10 μM arachidonic acid; read-out: Cox-2 IC50. The protocol: as §1, §2, §3

Setting [1] is: edema inhibition, rat, po 1 hr before carrageenan, paw volume at 3 hr, read-out: ED30.

Like-named read-outs stand apart in the source and are kept apart here.

Chain of cyclooxygenase-1 (P23219 24-599): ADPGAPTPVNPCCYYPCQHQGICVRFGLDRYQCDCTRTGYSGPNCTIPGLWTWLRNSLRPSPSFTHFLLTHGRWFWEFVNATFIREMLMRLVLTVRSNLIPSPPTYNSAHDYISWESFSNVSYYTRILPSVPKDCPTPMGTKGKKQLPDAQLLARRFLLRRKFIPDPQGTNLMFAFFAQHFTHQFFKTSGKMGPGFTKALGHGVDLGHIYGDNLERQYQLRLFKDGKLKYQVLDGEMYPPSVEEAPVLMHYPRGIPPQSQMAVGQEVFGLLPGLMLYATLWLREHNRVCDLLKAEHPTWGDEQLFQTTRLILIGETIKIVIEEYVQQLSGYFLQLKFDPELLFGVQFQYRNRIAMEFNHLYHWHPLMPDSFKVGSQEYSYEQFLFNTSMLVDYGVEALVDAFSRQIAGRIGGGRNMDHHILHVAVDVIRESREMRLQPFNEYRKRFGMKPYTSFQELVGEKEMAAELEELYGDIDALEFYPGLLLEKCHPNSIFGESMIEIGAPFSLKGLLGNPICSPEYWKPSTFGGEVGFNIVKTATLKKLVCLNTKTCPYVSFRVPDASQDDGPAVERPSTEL

In the assay on Rat Paw Edema (Rattus norvegicus, po, 3 h), `COc1ccc2c(c1)c([C@@H]1C[C@H]1C(=O)[O-])c(C)n2Cc1ccc(Br)cc1.[Na+]` (relative stereo) came in with an ED30 of 0.6 mg/kg.

`COc1ccc2c(c1)c([C@@H]1C[C@H]1C(=O)[O-])c(C)n2Cc1ccc(Br)cc1.[Na+]` (relative stereo) [sodium salt]: the figures for the IC50 on cyclooxygenase-1 and at cyclooxygenase-2 were greater than 10 µM and 0.046 µM, respectively.

For `COc1ccc2c(c1)c(C(C)C(=O)O)c(C)n2Cc1ccc(Cl)cc1` (stereo not drawn) [MK-555, α-(1-p-chlorobenzyl-2-methyl-5-methoxy-3-indolyl)propionic acid, reference compound], in the assay on Rat Paw Edema (setting [1]), the ED30 was found to be 3 mg/kg.

`COc1ccc2c(c1)c(C(C)CC(=O)[O-])c(C)n2Cc1ccc(Br)cc1.[Na+]` (racemic) [sodium salt]: the concentration for half-maximal inhibition (IC50) – broadly, the point on the concentration scale where inhibition reaches its midpoint – at cyclooxygenase-1 is greater than 10 µM; on cyclooxygenase-2, 0.004 µM.

For the compound `COc1ccc2c(c1)c(CC(=O)O)c(C)n2C(=O)c1ccc(Cl)cc1` [Indomethacin, reference compound], the ED30 with Rat Paw Edema (setting [1]) came to 0.9 mg/kg.

For the compound `COc1ccc2c(c1)c(C(C)CC(=O)[O-])c(C)n2Cc1ccc(Br)cc1.[Na+]` (racemic), the ED30 with Rat Paw Edema (Rattus norvegicus, po, 3 h) worked out at 0.7 mg/kg.
